Test results from publication PMC8491704, “Pharmacokinetic study of Tangwang Mingmu granule for the management of diabetic retinopathy based on network pharmacology” (Pharmaceutical Biology, 2021).
Where two headings read alike, the source gives them in different places. Each block holds one compound with its values, some of them ahead of it.

Legend:
[1] = Stability of QC samples of 8 compounds in rat plasma (25 °C 4 h, autosampler 12 h, three freeze-thaw cycles, −80 °C 7 d); type: in vitro ADME
Experimental: The calibration curves were assessed at eight concentration levels using the correlation coefficient (r). The lower limit of quantification (LLOQ) could fulfil the analytical requirements and achieved reliable accuracy and precision with a signal-to-noise ratio (S/N) ≥ 10. To determine intra- and inter-day precision and accuracy, six replicate quality control (QC) samples at three concentrations were prepared. Inter- and intra-day precision was evaluated by determining relative standard deviation (RSD) values, while accuracy was expressed in terms of the relative error (RE). The extraction recoveries were determined using three concentration levels and calculated by comparing the peak area of extracted samples with post-extracted spiked samples. Subsequently, matrix effects were assessed using the peak area of post-extracted spiked samples contrasted with QC samples at the three concentration levels. The stability test of QC samples at the three concentration levels was as follows: storage at 25 °C for 4 h, storage in an autosampler for 12 h, freeze-thaw cycle for three times, and storage at −80 °C for 7 d.
The stability tests were carried out under three freeze-thaw cycles, at 25 °C for 4 h, in an autosampler for 12 h, and at −80 °C for 7 d.

[2] = Pharmacokinetic study in SD rats after oral administration of TWMM (UPLC-QQQ-MS of plasma); type: in vivo, Sprague-Dawley (SD) rats; conditions: oral TWMM 9.6 g/kg
Experimental: Chromatographic separation was performed using an ACQUITY UPLC H-Class system equipped with a 1.8 μm HSS T3 analytical column (100 mm × 2.1 i.d., Waters Corporation, Milford, USA). […] ESI source was set to negative ionisation mode while the analysis was performed using multiple reaction monitorin. Ion spray voltage (3000 V), capillary temperature (450 °C), and the source parameters of the nine compounds are shown in Table 2.
The data obtained from the UPLC/Q-Orbitrap MS was imported into Xcalibur 4.0 software for analysis. Furthermore, the constituents acquired using GCMS-QP 2010 were profiled by comparison using the National Institute of Standards and Technology (NIST) database. The pharmacokinetic data were processed through MassLynx 4.1, and DAS 2.0 software was used to calculate the pharmacokinetic parameters according to the compartment model.
Six male SD rats (average weight: 220 ± 10 g) were acquired from Beijing Vital-River Laboratory Animal Technology Co., Ltd. All rats were acclimatized to an environmentally controlled laboratory for a week. Following this period, the rats were exposed to fasting conditions for 12 h but were allowed free access to water before the experiment. The rats were orally administered TWMM at a dose of 9.6 g/kg. Blood samples (300 µL) were collected into heparinized centrifuge tubes from the fossa orbitalis at pre-dose and 0.03, 0.08, 0.17, 0.25, 0.5, 1, 2, 4, 8, 12, 24, and 36 h intervals. The samples were immediately centrifuged at 6000 g for 10 min at 4 °C and the supernatants were transferred to clean centrifuge tubes.
Each 100 µL plasma sample was mixed with 20 µL of methanol, 20 µL of IS (5 µg/mL), and 600 µL acetonitrile. The mixtures were centrifuged at 15,000 g for 10 min at 4 °C after being vortexed for 3 min. The obtained supernatants were transferred to clean 1.5 mL centrifuge tubes, followed by evaporation under a milt nitrogen stream. Next, the obtained residues were individually redissolved in 100 µL of methanol and centrifuged at 15,000 g for 10 min at 4 °C after vortexed for 3 min. Lastly, 10 µL of individual supernatant was injected for analysis.

SMILES: CC=C1[C@H](O[C@@H]2O[C@H](CO)[C@@H](O)[C@H](O)[C@H]2O)OC=C(C(=O)OC)[C@H]1CC(=O)OC[C@H]1O[C@@H](OCCc2ccc(O)cc2)[C@H](O)[C@@H](O)[C@@H]1O (stereo in doubt) [Specnuezhenide]
Stability in rat plasma, Autosampler (12 h, 4 °C), Measured ([1]; QC concentration 1 ng/mL, autosampler 12 h, 4 °C, rat plasma, n = 3): 1.1 ± 0.1 ng/mL
Stability in rat plasma, Long term (7 day, –80 °C), Measured ([1]; QC concentration 1 ng/mL, long term 7 day, –80 °C, rat plasma, n = 3): 1.0 ± 0.1 ng/mL
Stability in rat plasma, Room temperature (4 h, 25 °C), Measured ([1]; QC concentration 1 ng/mL, room temperature 25 °C, rat plasma, n = 3): 1.0 ± 0.1 ng/mL
Stability in rat plasma, Three freeze/thaw cycles, Measured ([1]; QC concentration 1 ng/mL, three freeze/thaw cycles, rat plasma, n = 3): 1.0 ± 0.0 ng/mL
Stability in rat plasma, Autosampler (12 h, 4 °C), Measured ([1]; QC concentration 10 ng/mL, autosampler 12 h, 4 °C, rat plasma, n = 3): 9.8 ± 0.6 ng/mL
Stability in rat plasma, Long term (7 day, –80 °C), Measured ([1]; QC concentration 10 ng/mL, long term 7 day, –80 °C, rat plasma, n = 3): 10.3 ± 0.6 ng/mL
Stability in rat plasma, Room temperature (4 h, 25 °C), Measured ([1]; QC concentration 10 ng/mL, room temperature 25 °C, rat plasma, n = 3): 10.7 ± 0.2 ng/mL
Stability in rat plasma, Three freeze/thaw cycles, Measured ([1]; QC concentration 10 ng/mL, three freeze/thaw cycles, rat plasma, n = 3): 11.5 ± 0.6 ng/mL
Stability in rat plasma, Autosampler (12 h, 4 °C), Measured ([1]; QC concentration 200 ng/mL, autosampler 12 h, 4 °C, rat plasma, n = 3): 198.2 ± 2.6 ng/mL
Stability in rat plasma, Long term (7 day, –80 °C), Measured ([1]; QC concentration 200 ng/mL, long term 7 day, –80 °C, rat plasma, n = 3): 225.6 ± 9.0 ng/mL
Stability in rat plasma, Room temperature (4 h, 25 °C), Measured ([1]; QC concentration 200 ng/mL, room temperature 25 °C, rat plasma, n = 3): 212.7 ± 8.4 ng/mL
Stability in rat plasma, Three freeze/thaw cycles, Measured ([1]; QC concentration 200 ng/mL, three freeze/thaw cycles, rat plasma, n = 3): 219.0 ± 8.4 ng/mL
areas under the concentration-time curve (AUC0–∞) [2]: 57.2 ± 30.2 ng·h/mL
AUC (0–36) ([2]; n = 6): 48.62 ± 19.41 ng·h/mL
AUC (0–∞) ([2]; n = 6): 57.19 ± 30.25 ng·h/mL
Cmax ([2]; n = 6): 13.33 ± 4.61 ng/mL
MRT (0–36) ([2]; n = 6): 11.02 ± 5.63 h
MRT (0–∞) ([2]; n = 6): 19.29 ± 16.60 h
Tmax ([2]; n = 6): 0.46 ± 0.29 h
t1/2 ([2]; n = 6): 20.27 ± 25.00 h
Tmax ([2]; n = 6, listed as specnuezhenide): ≤ 1 h

Stability in rat plasma, Three freeze/thaw cycles, Measured ([1]; rat, plasma, 1 ng/mL): 1.1 ± 0.1 ng/mL
Stability in rat plasma, Three freeze/thaw cycles, Measured ([1]; rat, plasma, 10 ng/mL): 9.8 ± 0.8 ng/mL
Stability in rat plasma, Three freeze/thaw cycles, Measured ([1]; rat, plasma, 200 ng/mL): 212.6 ± 19.4 ng/mL
Stability in rat plasma, Room temperature (4 h, 25 °C), Measured ([1]; rat, plasma, 1 ng/mL): 1.2 ± 0.1 ng/mL
Stability in rat plasma, Room temperature (4 h, 25 °C), Measured ([1]; rat, plasma, 10 ng/mL): 9.2 ± 0.6 ng/mL
Stability in rat plasma, Room temperature (4 h, 25 °C), Measured ([1]; rat, plasma, 200 ng/mL): 187.6 ± 4.2 ng/mL
Stability in rat plasma, Autosampler (12 h, 4 °C), Measured ([1]; rat, plasma, 12 h, 1 ng/mL): 0.9 ± 0.1 ng/mL
Stability in rat plasma, Autosampler (12 h, 4 °C), Measured ([1]; rat, plasma, 12 h, 10 ng/mL): 9.1 ± 1.1 ng/mL
Stability in rat plasma, Autosampler (12 h, 4 °C), Measured ([1]; rat, plasma, 12 h, 200 ng/mL): 200.0 ± 14.0 ng/mL
Stability in rat plasma, Long term (7 day, –80 °C), Measured ([1]; rat, plasma, 168 h, 1 ng/mL): 1.0 ± 0.1 ng/mL
Stability in rat plasma, Long term (7 day, –80 °C), Measured ([1]; rat, plasma, 168 h, 10 ng/mL): 10.3 ± 0.5 ng/mL
Stability in rat plasma, Long term (7 day, –80 °C), Measured ([1]; rat, plasma, 168 h, 200 ng/mL): 214.4 ± 10.5 ng/mL
half-life ([2]; male, Sprague-Dawley, rat, n = 6): 2.71 ± 0.11 h
AUC(0-t) ([2]; male, Sprague-Dawley, rat, n = 6, read-out: AUC (0–36)): 34 ± 4.55 ng·h/mL
Cmax ([2]; male, Sprague-Dawley, rat, n = 6, read-out: Cmax): 16.1 ± 4.17 ng/mL
MRT last ([2]; male, Sprague-Dawley, rat, n = 6, read-out: MRT (0–36)): 4.97 ± 0.71 h
MRT inf ([2]; male, Sprague-Dawley, rat, n = 6, read-out: MRT (0–∞)): 4.97 ± 0.71 h
AUC(0-inf) ([2]; male, Sprague-Dawley, rat, read-out: areas under the concentration-time curve (AUC0–∞)): 34 ± 4.55 ng·h/mL
Tmax ([2]; male, Sprague-Dawley, rat, po, 9.6 g/kg, n = 6, read-out: Tmax): ≤ 1 h
t1/2 ([2]; n = 6): rapid elimination
SMILES: O=C(/C=C/c1ccc(O)c(O)c1)O[C@@H]1C[C@](O)(C(=O)O)C[C@@H](O)[C@H]1O [Chlorogenic acid]
